Where two headings read alike, the source gives them in different places.
How the values were obtained:
Haemophilus influenzae = experiment: Expanded panel broth microdilution MIC; assay type: cell-based; settings: for MIC: read-out: MIC
Pseudomonas aeruginosa = experiment: Expanded panel broth microdilution MIC; assay type: cell-based
E. cloacae = experiment: Expanded panel broth microdilution MIC; assay type: cell-based; settings: Enterobacter cloacae, read-out: MIC
P. vulgaris = experiment: Expanded panel broth microdilution MIC; assay type: cell-based; settings: Proteus vulgaris; P. vulgaris MMX 9373; read-out: MIC
H. parainfluenzae = experiment: Expanded panel broth microdilution MIC; assay type: cell-based; settings: Haemophilus parainfluenzae; H. parainfluenzae MMX 2529; read-out: MIC
S. aureus = experiment: Expanded panel broth microdilution MIC/MBC; settings: for MIC: Staphylococcus aureus
Moraxella catarrhalis = experiment: Expanded panel broth microdilution MIC; assay type: cell-based
[1] = tested on: Peptostreptococcus micros; experiment: Expanded panel broth microdilution MIC; assay type: cell-based
Streptococcus pneumoniae = experiment: Expanded panel broth microdilution MIC/MBC; assay type: cell-based

CCCCCCCCCCNCCN[C@@]1(C)C[C@H](O[C@H]2[C@H](Oc3c4cc5cc3Oc3ccc(cc3Cl)[C@@H](O)[C@@H](NC(=O)[C@@H](CC(C)C)NC)C(=O)N[C@@H](CC(N)=O)C(=O)N[C@H]5C(=O)N[C@H]3C(=O)N[C@H](C(=O)N[C@H](C(=O)O)c5cc(O)cc(O)c5-c5cc3ccc5O)[C@H](O)c3ccc(c(Cl)c3)O4)O[C@H](CO)[C@@H](O)[C@@H]2O)O[C@@H](C)[C@H]1O [RV40, N-decylaminoethylvancomycin]
> 64 µg/mL: MIC (Pseudomonas aeruginosa) | MIC (Pseudomonas aeruginosa; ATCC27853, P. aeruginosa ATCC 27853, read-out: MIC) | MIC (Pseudomonas aeruginosa; P. aeruginosa MMX 2562, MDR, read-out: MIC) | MIC (E. cloacae; ATCC49141, E. cloacae ATCC 49141) | MIC (E. cloacae; ATCCBAA1143, E. cloacae ATCC BAA-1143, AmpC) | MIC (P. vulgaris)
0.015 µg/mL: MIC (S. aureus; ATCC13709 / MSSA, S. aureus ATCC 13709, MSSA) | MIC (S. aureus; MRSA, S. aureus MMX 5715, MRSA) | MIC (S. aureus; MRSA, S. aureus MMX 7902, MRSA) | MIC (S. aureus; MSSA, S. aureus MMX 7908, MSSA) | MIC (S. aureus; NRS2, S. aureus NRS2, hVISA;Mu3)
16 to 32 µg/mL: MIC range (Haemophilus influenzae)
0.06 µg/mL: MIC (S. aureus; NRS1 / VISA, S. aureus NRS1, VISA, Mu50) | MIC (S. aureus; NRS4 / VISA, S. aureus NRS4, VISA) | MIC (S. aureus; NRS22 / VISA, S. aureus NRS22, VISA) | MIC (S. aureus; VISA, read-out: MIC (median), S. aureus VISA, 5 isolates) | MIC ([1]; P. micros, 1 isolate) | MIC ([1]; Parvimonas micra, P. micros MMX 3546, read-out: MIC)
≤ 0.008 µg/mL: MIC (Streptococcus pneumoniae; Streptococcus pneumoniae, S. pneumoniae MMX 432, PRSP, read-out: MIC)
1 µg/mL: MIC (Moraxella catarrhalis; ATCC8176, M. catarrhalis ATCC 8176, read-out: MIC) | MIC (Moraxella catarrhalis; M. catarrhalis MMX 3782, read-out: MIC)
0.03 µg/mL: MIC (S. aureus; NRS13 / VISA, S. aureus NRS13, VISA) | MIC (S. aureus; NRS23, S. aureus NRS23, hVISA) | MIC (S. aureus; NRS52 / VISA, S. aureus NRS52, VISA)
64 µg/mL: MIC (Haemophilus influenzae; ATCC49247, H. influenzae ATCC 49247, BL-)
32 µg/mL: MIC (Haemophilus influenzae; H. influenzae MMX 7988, BL+) | MIC (Moraxella catarrhalis; ATCC8193, M. catarrhalis ATCC 8193, read-out: MIC)
0.004 µg/mL: MIC (Streptococcus pneumoniae; Streptococcus pneumoniae, ATCC49619, S. pneumoniae ATCC 49619, PISP, read-out: MIC) | MIC (Streptococcus pneumoniae; Streptococcus pneumoniae, S. pneumoniae MMX 747, PISP, read-out: MIC)
16 µg/mL: MIC (H. parainfluenzae)
≤0.008 µg/mL: MIC (Streptococcus pneumoniae; S. pneumoniae PRSP, 1 isolate)
0.023 µg/mL: MIC (S. aureus; read-out: MIC (median), S. aureus hVISA, 2 isolates)
1: MIC:MBC (S. aureus; S. aureus MRSA, MBC median of n = 5) | MIC:MBC (S. aureus; S. aureus MSSA, MBC on one organism) | MIC:MBC (S. aureus; S. aureus VISA, MBC median of n = 2) | MIC:MBC (S. aureus; S. aureus hVISA, MBC on one organism) | MIC:MBC (Streptococcus pneumoniae; S. pneumoniae PISP, MBC on one organism)
0.008 µg/mL: MIC (S. aureus; ATCC29213 / MSSA, S. aureus ATCC 29213, MSSA) | MIC (S. aureus; ATCC43300 / MRSA, S. aureus ATCC 43300, MRSA) | MIC (S. aureus; ATCCBAA1556|MRSA|USA300, S. aureus ATCC BAA-1556, MRSA, USA300 (expanded panel)) | MIC (S. aureus; ATCCBAA1756|MRSA|NRS384|USA300, S. aureus NRS 384, ATCC BAA-1756, MRSA, USA300) | MIC (S. aureus; MRSA / NRS123 / USA400, S. aureus NRS123, MRSA, USA400) | MIC (S. aureus; MRSA / NRS725 / USA300, S. aureus NRS725, MRSA, USA300) | MIC (S. aureus; MRSA / USA300, S. aureus MMX 3982, MRSA, USA300) | MIC (S. aureus; MRSA, S. aureus MMX 7899, MRSA) | MIC (S. aureus; MRSA, S. aureus MMX 7900, MRSA) | MIC (S. aureus; MRSA, S. aureus MMX 7901, MRSA) | MIC (S. aureus; MRSA, S. aureus MMX 7903, MRSA) | MIC (S. aureus; MRSA, read-out: MIC (median), S. aureus MRSA, 12 isolates) | MIC (S. aureus; MSSA, S. aureus MMX 7907, MSSA)
1 to 2 µg/mL: MIC range (Moraxella catarrhalis)
0.012 µg/mL: MIC (S. aureus; MSSA, read-out: MIC (median), S. aureus MSSA, 4 isolates)
